Assay results as given in US7538241B2, “Hsp90 family protein inhibitors” (Kyowa Hakko Kogyo Co., Ltd., priority 2003, dated 2009).

Tested on: human chronic myelocytic leukemia-derived K562 cells
Test: Cell growth inhibition test with K562 cells (WST-1)
Assay type: cell-based
Conditions: 72 hours, read-out: 50% growth inhibition concentration (GI50)
Description: In a 96-well plate (Nunc), human chronic myelocytic leukemia-derived K562 cells were sown in an amount of 1500 cells/well, and pre-incubated in 10% FCS-containing Rosewell Park Memorial Institute's Medium (RPMI) 1640 (Nissui) (incubation medium) in a 5% carbon dioxide incubator at 37° C. for 5 hours. Next, a DMSO solution of a test compound controlled at 10 mmol/L was stepwise diluted with the incubation medium, and added to each well in a total amount of 100 μL/well, and further incubated in the 5% carbon dioxide incubator at 37° C. for 72 hours. After the incubation, WST-1-labeled mixture (Rosh Diagnostic) diluted 2-fold with the incubation medium was added thereto in an amount of 20 μL/well, and incubated in the 5% carbon dioxide incubator at 37° C. for 2 hours. Using a microplate spectrophotometer (Biorad's Model 550), the absorbance at 450 nm and 655 nm of each well was measured. The cell growth inhibition activity of the test compound was indicated by the 50% growth inhibition concentration (GI50) thereof, like in Test Example 2.

GI50 [µM] | SMILES
≤ 50 | CCc1c(O)cc(O)c(-c2cccc(N)c2)c1CCOCC(O)CO (centres unmarked) [Compound 197, 4-(3-Aminophenyl)-5-[2-(2,3-dihydroxypropoxy)ethyl]-6-ethylbenzene-1,3-diol]
≤ 50 | CCc1c(O)cc(O)c(-c2cccc(NS(C)(=O)=O)c2)c1CCOCC(O)CO (centres unmarked) [Compound 202, 6-Ethyl-5-[2-(2,3-dihydroxypropoxy)ethyl]-4-{3-[N-(methylsulfonyl)amino]phenyl}benzene-1,3-diol]
≤ 50 | CCc1c(O)cc(O)c(-c2cccc(NS(=O)(=O)c3ccc(C)cc3)c2)c1CCOCC(O)CO (centres unmarked) [Compound 203, 5-[2-(2,3-Dihydroxypropoxy)ethyl]-6-ethyl-4-{3-[N-(4-tolylsulfonyl)amino]phenyl}benzene-1,3-diol]
≤ 50 | CCc1c(O)cc(O)c(-c2cccc(NC(C)=O)c2)c1CCOCC(O)CO (centres unmarked) [Compound 204, 4-[3-(N-acetylamino)phenyl]-5-[2-(2,3-dihydroxypropoxy)ethyl]-6-ethylbenzene-1,3-diol]
≤ 50 | CCc1c(O)cc(O)c(-c2cccc(NC(=O)c3ccccc3)c2)c1CCOCC(O)CO (centres unmarked) [Compound 205, 4-[3-(N-benzoylamino)phenyl]-5-[2-(2,3-dihydroxypropoxy)ethyl]-6-ethylbenzene-1,3-diol]
≤ 50 | CCNC(=O)Nc1cccc(-c2c(O)cc(O)c(CC)c2CCOCC(O)CO)c1 (centres unmarked) [Compound 206, 5-[2-(2,3-Dihydroxypropoxy)ethyl]-6-ethyl-4-[3-(3-ethylureido)phenyl]benzene-1,3-diol]

More lines, now with the values behind:

SMILES | GI50 [µM]
CCc1c(O)cc(O)c(-c2cccc(OCCN3CCCC3=O)c2)c1CCOCC(O)CO (centres unmarked) [Compound 196, 5-[2-(2,3-Dihydroxypropoxy)ethyl]-6-ethyl-4-{3-[2-(2-oxopyrrolidin-1-yl)ethoxy]phenyl}benzene-1,3-diol] | ≤ 50
CCc1c(O)cc(O)c(-c2ccccc2)c1CC(O)(CCCO)CCCO [Compound 199, 6-Ethyl-5-[2,5-dihydroxy-2-(3-hydroxypropyl)pentyl]-4-phenylbenzene-1,3-diol] | ≤ 50
CCc1c(O)cc(O)c(-c2ccccc2)c1Cc1ocnc1C(=O)OC [Compound 200, Methyl 5-[(2-ethyl-3,5-dihydroxy-6-phenylphenyl)methyl]-1,3-oxazole-4-carboxylate] | ≤ 50
CCc1c(O)cc(O)c(-c2cccc(NC(=O)C(C)(CO)CO)c2)c1CCOCC(O)CO (centres unmarked) [Compound 207, 5-[2-(2,3-Dihydroxypropoxy)ethyl]-6-ethyl-4-{3-[2-hydroxy-1-(hydroxymethyl)-1-methylethylcarbonylamino]phenyl}benzene-1,3-diol] | ≤ 50
CCc1c(O)cc(O)c(-c2ccccc2)c1Cc1ocnc1CO [Compound 208, 6-Ethyl-5-{[4-(hydroxymethyl)-1,3-oxazol-5-yl]methyl}-4-phenylbenzene-1,3-diol] | ≤ 50
CCc1c(O)cc(O)c(-c2ccccc2)c1CC1OCC(CO)O1 (centres unmarked) [Compound 211, 6-Ethyl-5-[(4-hydroxymethyl-1,3-dioxolan-2-yl)methyl]-4-phenylbenzene-1,3-diol] | ≤ 50
CCc1c(O)cc(O)c(-c2ccccc2)c1CCC(N)=O [Compound 212, 3-(2-Ethyl-3,5-dihydroxy-6-phenylphenyl)propanamide] | ≤ 50
CCc1c(O)cc(O)c(-c2ccccc2)c1CCC(C(=O)OC)C(=O)OC [Compound 213, Methyl 4-(2-ethyl-3,5-dihydroxy-6-phenylphenyl)-2-(methoxycarbonyl)butanoate] | ≤ 50
CCc1c(O)cc(O)c(-c2ccccc2)c1C=CC(CO)CO [Compound 214, 6-ethyl-5-[4-hydroxy-3-(hydroxymethyl)but-1-en-1-yl]-4-phenylbenzene-1,3-diol] | ≤ 50
CCc1c(O)cc(O)c(-c2ccccc2)c1CCC(CO)CO [Compound 215, 6-Ethyl-5-[4-hydroxy-3-(hydroxymethyl)butyl]-4-phenylbenzene-1,3-diol] | ≤ 50
CCc1c(O)cc(O)c(-c2ccccc2)c1CCCC(CO)CO [Compound 217, 6-Ethyl-5-[5-hydroxy-4-(hydroxymethyl)pentyl]-4-phenylbenzene-1,3-diol] | ≤ 50
